Measured values from patent publication US8114590B2, “Diagnosis and treatment of chronic lymphocytic leukemia (CLL)” (The Regents of the University of California, priority 2005, dated 2012).

Tests used:
CLL-PBMC [1] = settings: literature (refs 8, 9, 13); cited from earlier work
monocytes or macrophages = settings: 30 μM, literature (ref 25); cited from earlier work
normal-PBMC = settings: 10, 30 and 100 μM, 72 h, normal subjects n=6
Procedure: (§1) Apoptosis: PBMC (1 million cells/ml) from B-CLL patients or normal subjects were cultured in RPMI media supplemented with 10% FBS, L-glutamine and penicillin/streptomycin at 37° C. in 5% CO2 and treated with either vehicle or the PDE7 inhibitor BRL-50481 for 72 h. Apoptosis was assessed by flow cytometry as the percentage of cells stained with Annexin V and Propidium Iodide (PI) and analyzed by FACScan using CELLQuest software (Becton-Dickinson Immunocytometry System) (18).
(§2) PBMC from CLL patients (n=10) and normal subjects (n=6) were grown in the absence or presence of BRL-50481 (10 μM, 30 μM and 100 μM) for 72 h.

CLL-PBMC [2] = settings: 72 h
Procedure: as §1, §2

CD8+ T-lymphocytes = settings: 30 μM, literature (ref 25); cited from earlier work

| Structure (SMILES) | induction of apoptosis in CLL-PBMC (CLL-PBMC [1]) | effect on TNFα release in monocytes or macrophages (monocytes or macrophages) | induction of apoptosis in PBMC from normal subjects (normal-PBMC) | dose dependence of apoptosis induction in CLL-PBMC (CLL-PBMC [2]; 10 μM, 30 μM and 100 μM) | increase in apoptosis in CLL-PBMC (CLL-PBMC [2]; ≧30 uM, CLL patients n=10, relative to vehicle control) | inhibition of IL-5-promoted proliferation of CD8+ T-lymphocytes (CD8+ T-lymphocytes) |
| --- | --- | --- | --- | --- | --- | --- |
| CN(C(=O)CCCOc1ccc2[nH]c(=O)ccc2c1)C1CCCCC1 [cilostamide] | does not induce apoptosis |  |  |  |  |  |
| Cc1ccc([N+](=O)[O-])cc1S(=O)(=O)N(C)C [BRL-50481, 3-(N,N-dimethylsulfonamido)-4-methyl-nitrobenzene] |  | little effect | not in PBMC from normal subjects | consistently and dose-dependently induced apoptosis | 20-40% | failed to inhibit |
| Cn1c(=O)c2[nH]cnc2n(C)c1=O [theophylline] | induces apoptosis |  |  |  |  |  |
